Assay results from patent US11229597B2, “Topical doxycycline composition” (HORUS PHARMA, priority 2017, dated 2022).

Test: Stability tests of doxycycline (active principle content by HPLC over time)
Assay type: physicochemical
Settings: for stability of doxycycline in glycerol solution as a function of time: 25° C. (FIG. 2)
Description: The preparation in the form of an H/L emulsion containing the active principle and cyclodextrins in solution in the polyol is carried out according to the following method: • The liquid hydrophobic material/semi-solid hydrophobic material base (called phase A) is formulated by mixing in a water bath at 75° C. to make all components miscible. For the mass ratio of liquid hydrophobic material to semi-solid hydrophobic material 0/100, the semi-solid hydrophobic material is added directly to the mixer at 45° C. • The temperature of phase A is lowered to 45° C. and then phase A is transferred to the mixer whose temperature is 45° C. • The cyclodextrin is added to the polyol (called phase B) and magnetically stirred then the doxycyline hyclate is added to phase B and magnetically stirred until all components are completely dissolved, the temperature of the solution is increased to 45° C. • When phases A and B are at the same temperature, phase B is added to phase A under stirring to form an emulsion. • The emulsion is stirred for 30 minutes at 700 rpm at 45° C. and then the temperature of the entire mixture is reduced to 37° C. • The resulting emulsion is packaged and cooled to room temperature. In order to assay of the active principle in the formulation, the following extraction is carried out: • 1.0 g of the formula is diluted in 10.0 g of water and stirred with a suitable stirring system for 30 minutes at 45° C. • After filtration with a nylon filter at 0.45 μm, a dilution in the mobile phase is performed for a high-performance liquid chromatography assay. The active principle content is determined by the following high-performance liquid chromatography method: • Column: XTerra® RP 8 5 μm 4.6×250 mm • Mobile phase: • 65% water containing 0.13% oxalic acid • 22% acetonitrile • 13% methanol • Flow rate: 1.0 mL/min
Stability tests are performed at temperatures of 25° C. and 40° C.: […]

| Compound | stability of doxycycline in aqueous solution as a function of time (0.1% aqueous solution, 25° C. and 40° C. (FIG. 1)) | stability of doxycycline in glycerol solution as a function of time (0.1% doxycycline hyclate in glycerol with β-cyclodextrins) | stability of doxycycline in glycerol solution as a function of time (0.1% doxycycline hyclate in glycerol without β-cyclodextrins) |
| --- | --- | --- | --- |
| C[C@H]1c2cccc(O)c2C(=O)C2=C(O)[C@]3(O)C(=O)C(C(N)=O)=C(O)[C@@H](N(C)C)[C@@H]3[C@@H](O)[C@@H]21 [doxycycline] | rapidly degraded | – | – |
| doxycycline hyclate | – | no or little degradation | no or little degradation |
